Source: patent publication US9517254B2, “Treatment regimens” (S1 Biopharma, Inc., priority 2012, dated 2016)
Several values for one entry are separate records, joined by “and”; a condition that tells them apart may be missing. Equal entries are not always repeated. Numbered stars: 1 amine (or outer) side, 2 acyl side, 3 side chain; on linkers, the order of the positions; unused ones are H or OH. Bridge positions count the residues as written; N and C are the ends. Square brackets hold non-standard residues; d marks the D form. Peptide text beside a SMILES is read from it. X1 = O=C(c1ccc(O)cc1)[C@H](N[*:1])C(=O)[*:2]

Assays:
healthy volunteer [1] = experiment: Daily sexual desire score (0-2) in a single volunteer given four sequential 4-week treatments; format: in vivo, human; conditions: for sexual desire, comparison of bupropion alone with trazodone alone: 4 weeks each; for sexual desire response: 4 weeks of treatment
Description: A healthy volunteer in a stable marital relationship for two years with no current sexual disorders, exposed themself sequentially to four treatments, each for 4 weeks: (1) Treatment B: Instant-release (IR) Bupropion (Bup) 150 mg in the morning and 100 mg in the evening; (2) Treatment T: IR trazodone (Trz) 50 mg t.i.d.; (3) Treatment Llow, IR Trz 25 mg b.i.d. plus IR Bup 150 mg in the morning and 100 mg in the evening; and (4) Treatment Lhigh, IR Trz 50 mg t.i.d. plus IR Bup 75 mg t.i.d. A washout of 1-4 weeks occurred between each treatment.
The test used for the desire score was a two-tailed paired t test, using all scores within a given treatment as repeated measures. […] Both were from the website graphpad.com.* *http://graphpad.com/quickcalcs/chisquared1.cfm

healthy volunteer [2] = experiment: Patient's global impression of improvement (PGI) for sexual events (arousal, orgasm, overall satisfaction), same single-volunteer study; format: in vivo, human
men = conditions: 24 IU intranasal, placebo-controlled; cited from earlier work
patients = conditions: transnasal, three patients; cited from earlier work
[3] = wks 1-2, arousal, orgasm, overall satisfaction

| Structure (SMILES) | sexual desire response (healthy volunteer [1]) | 0-2 Daily Desire Score, mean ± SD (healthy volunteer [1]; total, all four weeks) | 0-2 Daily Desire Score, mean ± SD (healthy volunteer [1]; wks 1-2) | 0-2 Daily Desire Score, % of max. (healthy volunteer [1]; wks 1-2, max. = 28) [%] | 0-2 Daily Desire Score, total (healthy volunteer [1]; wks 1-2, max. = 28) | 0-2 Daily Desire Score, % of max. (healthy volunteer [1]; wks 3-4, max. = 28) | 0-2 Daily Desire Score, total (healthy volunteer [1]; wks 3-4, max. = 28) | PGI Improved for Sexual Events, Sum of 3 domains, % improved (healthy volunteer [2]; total, all four weeks) [%] | PGI Improved for Sexual Events, Sum of 3 domains, n/N (healthy volunteer [2]; total, all four weeks) | PGI Improved for Sexual Events, Sum of 3 domains, % improved (healthy volunteer [2]; wks 1-2) [%] | PGI Improved for Sexual Events, Sum of 3 domains, n/N (healthy volunteer [2]; [3]) | PGI Improved for Sexual Events, Sum of 3 domains, % improved (healthy volunteer [2]; wks 3-4) [%] | PGI Improved for Sexual Events, Sum of 3 domains, n/N (healthy volunteer [2]; wks 3-4) | further results |
| --- | --- | --- | --- | --- | --- | --- | --- | --- | --- | --- | --- | --- | --- | --- |
| CC(NC(C)(C)C)C(=O)c1cccc(Cl)c1 (racemic) [Bup, (±)-2-(tert-Butylamino)-1-(3-chlorophenyl)propan-1-one] | intermediate | 0.82 ± 0.55 | 0.65 ± 0.74 | 32 | 9 | 50% | 14 | 20 | 6/30 | 27 | 4/15 | 13 | 2/15 | sexual desire, comparison of bupropion alone with trazodone alone (healthy volunteer [1]; listed as B): markedly superior to T; sexual desire, comparison of bupropion alone with trazodone alone (healthy volunteer [1]; listed as Treatment B): superior to Treatment T; arousal, % of sexual events improved (healthy volunteer [2]; third and fourth weeks of use): 0%; arousal, % of sexual events improved (healthy volunteer [2]; total for all four weeks): 20%; arousal, % of sexual events improved (healthy volunteer [2]; weeks 1-2): 40%; arousal, sexual events improved, n/N (healthy volunteer [2]; weeks 1-2): ⅖; PGI Improved for Sexual Events, Sum of 3 domains, % improved (healthy volunteer [2]; wks 3-4, listed as B): 20% and 13% |
| CC[C@H](C)[C@@H]1NC(=O)[C@H](C(=O)c2ccc(O)cc2)NC(=O)[C@@H](N)CSSC[C@@H](C(=O)N2CCC[C@H]2C(=O)N[C@@H](CC(C)C)C(=O)NCC(N)=O)NC(=O)[C@H](CC(N)=O)NC(=O)[C@H](CCC(N)=O)NC1=O [OT, 1-({(4R,7S,10S,13S,16S,19R)-19-amino-7-(2-amino-2-oxoethyl)-10-(3-amino-3-oxopropyl)-16-(4-hydroxybenzoyl)-13-[(1S)-1-methylpropyl]-6,9,12,15,18-pentaoxo-1,2-dithia-5,8,11,14,17-pentaazacycloicosan-4-yl}carbonyl)-L-prolyl-L-leucylglycinamide] (H-C[X1]IQNCPLG-NH2; disulfide 1-6) | – | – | – | – | – | – | – | – | – | – | – | – | – | arousal or orgasm on the Acute Sexual Experiences Scale (ASES) (men): failed to increase arousal or orgasm; effect on sexual function in case reports (patients): pro-sexual effects |
| O=c1n(CCCN2CCN(c3cccc(Cl)c3)CC2)nc2ccccn12 [Trz, 2-{3-[4-(3-chlorophenyl)piperazin-1-yl]propyl}[1,2,4]triazolo[4,3-a]pyridin-3(2H)-one] | low | 0.07 ± 0.38 | 0.14 ± 0.53 | 7 | 2 | 0, 0% | 0, 0% | 20 | 6/30 | 25 | 3/12 | 17 | 3/18 | 0-2 Daily Desire Score, % of max. (healthy volunteer [1]; total, all four weeks): 4%; 0-2 Daily Desire Score, total (healthy volunteer [1]; total, all four weeks): 2 |
